Converted amounts (≈) assume the structure as drawn. Like-named read-outs stand apart in the source and are kept apart here.
Assays:
[1] = Solubility of carvacrol in the absence of cyclodextrins (S0) at different pH; type: physicochemical; settings: for S0 (solubility of carvacrol) / solubility at 60 min: absence of CDs; for solubility at 60 min: aqueous buffer, thermodynamic from solid
Experimental: (§1) The solubility studies of carvacrol, in the presence of CDs, were performed according to the method described by Higuchi and Connors in 1965, with slight modifications. […] For an evaluation of the pH effect in the process of complex formation, these solutions were prepared in different buffer solutions: 100 mM sodium acetate buffer, pH 3.5 and 5.5; 100 mM sodium phosphate buffer, pH 6.5 and 7.0; and 100 mM sodium borate buffer, pH 8.5. To each solution, a saturating amount of the carvacrol under analysis was added, then the solutions were kept in an ultrasonic bath for 60 min in the dark at 25 °C until equilibrium was reached. After this point, the solutions were filtered through 0.45 μm nylon to remove the excess carvacrol.
(§2) To quantify the amount of monoterpene in each filtrate, the complexes were disrupted by adding 80% ethanol. Each solution was then introduced into a gas chromatograph, coupled to a mass spectrometer (Shimadzu QP 2010) equipped with an Slb-5 ms (30 m × 0.25 mm × […]) capillary column. The operating conditions are as follows: the starting temperature is 70 °C, the temperature is increased at a rate of 4 °C/min until it reaches 160 °C and is then increased to 280 °C at a rate of 30 °C/min, then held there for 6 min; the inlet temperature is 250 °C, the injection type is a 1:20 split mode, with helium used as the carrier gas. Component identification is based on the relative elution times and comparison of the mass spectra of each peak against a database containing the system.
(§3) Once the concentrations of carvacrol in each sample were quantified, the values obtained were plotted against the concentrations of CDs. For the calculation of KC, the slope and intercept of the phase diagrams related to the solubility studies were determined, according to Equation (1):(1) KC=Slope/S0 (1−Slope) where S0 is the solubility of carvacrol at 25 °C, in the absence of cyclodextrins, and Slope is the gradient of the phase solubility diagrams.

[2] = Phase solubility study of carvacrol with α-CDs (Higuchi and Connors); type: physicochemical
Experimental: as §1, §2, §3
(§4) To determine the complexation efficiency (CE) of carvacrol, Equation (2) was used:(2) CE=[carvacrol−CDs]/[CD]=S0× KC.
(§5) The molar ratio (MR) of carvacrol:CDs was calculated using the CE values and Equation (3):(3) carvacrol:CDs=1:(1+1/CE).

[3] = Phase solubility study of carvacrol with β-CDs (Higuchi and Connors); type: physicochemical; settings: for CE (complexation efficiency) / KC: β-CDs
Experimental: as §1, §2, §3, §4, §5

[4] = Phase solubility study of carvacrol with HP-β-CDs (Higuchi and Connors); type: physicochemical
Experimental: as §1, §2, §3, §4, §5

[5] = Complexation of carvacrol with HP-β-CD by ultrasound (US); type: physicochemical
Experimental: as §3
The solubility method was developed from that used by Higuchi and Connors, with minor modifications. We added an excess of carvacrol to an aqueous solution that increased the concentration to 100 mM HP-β-CD, in 100 mL of water, at 25 °C. […] The aqueous solutions were filtered through 0.45 µm nylon to remove the excess free carvacrol. To determine the amount of carvacrol complexed, samples were diluted in ethanol-water at 80% and analyzed via gas chromatography–mass spectrometry (CG–MS).

[6] = Complexation of carvacrol with HP-β-CD by microwave irradiation (MWI); type: physicochemical; settings: for increase in solubility of carvacrol / KC: HP-β-CDs
Experimental: as §3
The calculation of the complexation constant (KC) between carvacrol and HP-β-CDs was carried out by the addition of different concentrations of HP-β-CDs to 100 mL of water, maintaining a 1:1 molar ratio. Aqueous HP-β-CD solutions (0–100 mM) were irradiated with microwaves for 30 s at 10 s intervals until the dissolution reached 70 °C. The carvacrol was then added to each sample and irradiated again for 30 s at the same intervals (10 s) until the samples reached 70 °C. Subsequently, the samples were shaken and held for 12 h in scintillation vials, sealed with parafilm, and protected from light.
Then, we repeated the above procedure by irradiating the sample again until it reached 70 °C. The solution was then filtered through 0.45 μm nylon to remove the excess carvacrol. Finally, the concentration of monoterpene was determined via CG-MS.

[7] = system: HCT-116 colorectal cancer cells; test: Cell viability assay (tetrazolium), HCT-116; type: cell-based; settings: Homo sapiens; HCT-116, 72 h incubation
Experimental: (§6) Colorectal adenocarcinoma (HCT-116) and non-tumoral fetal lung fibroblast (MRC5) cell lines were obtained from the American Type Culture Collection (ATCC, Rockville, MD, USA). The cell lines were cultivated in high glucose Dulbecco’s modified Eagle’s medium (DMEM) and Eagle’s minimum essential medium (EMEM), respectively, containing 10% heat-inactivated fetal bovine serum (FBS), 2 mM glutamine, 50 U/mL penicillin and 50 µg/mL streptomycin (Sigma-Aldrich Chemical Co., St. Louis, MO, USA) in an atmosphere of 5% CO2 and 95% humidified air at 37 °C. The subculture was complete when 90% confluence was reached. Fibroblasts for up to 15 doublings were used for the experiments.
(§7) Exponentially growing cells were plated in triplicate in flat-bottomed 96-well plates (Nunc, Roskilde, Denmark) at 1500 cells/well for HCT-116 and 4000 cells/well for MRC5. The following day, compounds were added in serial dilutions, from 50 µM to 1000 µM. Control wells contained compound-free medium plus 0.1% dimethyl sulfoxide (DMSO). The plates were incubated for 3 days in a humidified 5% CO2 incubator and cell viability was determined. […] The formazan crystals were dissolved in 200 µL DMSO for 30 min and the absorbance was read at 570 nm in a microtiter plate reader. The results were calculated as:(7) cell viability (%)=average O.D of wells/average O.D of control wells.

[8] = system: MRC-5 lung fibroblast cells; test: Cell viability assay (tetrazolium), MRC-5; type: cell-based; settings: Homo sapiens, MRC5; MRC-5, 72 h incubation
Experimental: as §6, §7

[9] = end of the 7-day period, 300 µM, DMEM with HCT-116 cells, 37 °C
Experimental: Carvacrol release from the free and complexed carvacrol was monitored by chromatography (see Section 2.2). Briefly, 1 × 10^5 HCT-116 cells were grown for up to 7 days in DMEM, supplemented with 300 µM free or complexed HP-β-CD-carvacrol, at 37 °C. At each appropriate time point (days 1–7), 1 mL aliquots were withdrawn and replaced with an equal volume of fresh medium. All determinations were made in triplicate.

[10] = weak acid; cited from earlier work
[11] = parameters: method as in PMID 25298799; settings: with HP-β-CDs; cited from earlier work
[12] = parameters: method as in PMID 25298799; settings: with RAMEB; cited from earlier work
[13] = parameters: method as in PMID 25298799; settings: with CRYSMEB; cited from earlier work

With `Cc1ccc(C(C)C)cc1O` [carvacrol] the “S0 (solubility of carvacrol)” value ([1]; pH 3.5, 25 °C) was 2760 ± 200 µM, the “S0 (solubility of carvacrol)” value ([1]; pH 6.5, 25 °C) was 920 ± 110 µM and the “decrease of solubility at pH 7.0 relative to acidic pH” value ([1]; pH 7.0 vs acidic pH (S0 = 2.76)) was 80%. The “S0 (solubility of carvacrol)” value ([1]; pH 8.5, 25 °C) was 760 ± 130 µM, the solubility at 60 min ([1]; sodium acetate buffer, pH 3.5, 25 °C) was 2760 µM (≈ 415 µg/mL) and the solubility at 60 min ([1]; sodium acetate buffer, pH 5.5, 25 °C) was 1650 ± 160 µM (≈ 248 µg/mL). It also gave a solubility at 60 min ([1]; sodium borate buffer, pH 8.5, 25 °C) of 760 µM (≈ 114 µg/mL), a solubility at 60 min ([1]; sodium phosphate buffer, pH 6.5, 25 °C) of 920 µM (≈ 138 µg/mL) and a solubility at 60 min ([1]; sodium phosphate buffer, pH 7.0, 25 °C) of 560 ± 30 µM (≈ 84.1 µg/mL). For the same compound, the “CE (complexation efficiency)” value ([2]; pH 3.5) was 0.298, the KC ([2]; pH 3.5) was 108 ± 16 L/mol and the “CE (complexation efficiency)” value ([2]; pH 5.5) was 0.317. The KC ([2]; pH 5.5) was 192 ± 24 L/mol, the “CE (complexation efficiency)” value ([2]; pH 6.5) was 0.220 and the KC ([2]; pH 6.5) was 239 ± 42 L/mol. The “CE (complexation efficiency)” value ([2]; pH 7.0) was 0.224, the KC ([2]; pH 7.0) was 400 ± 56 L/mol and the “CE (complexation efficiency)” value ([2]; pH 8.5) was 0.216. For the same compound, the KC ([2]; pH 8.5) was 284 ± 37 L/mol, the “KC with β-CDs relative to KC with α-CD” value ([3]; compared with α-CD (400 ± 56)) was 8 times higher and the “CE (complexation efficiency)” value ([3]; pH 3.5) was 0.386. For the same compound, the KC ([3]; pH 3.5) was 140 ± 21 L/mol, the “CE (complexation efficiency)” value ([3]; pH 5.5) was 1.234 and the KC ([3]; pH 5.5) was 748 ± 19 L/mol. For the same compound, the “CE (complexation efficiency)” value ([3]; pH 6.5) was 0.797, the KC ([3]; pH 6.5) was 866 ± 180 L/mol and the “CE (complexation efficiency)” value ([3]; pH 7.0) was 1.941. The KC ([3]; pH 7.0) was 3466 ± 115 L/mol, the “CE (complexation efficiency)” value ([3]; pH 8.5) was 0.441 and the KC ([3]; pH 8.5) was 580 ± 45 L/mol. For the same compound, the “CE (complexation efficiency)” value ([4]; pH 3.5) was 0.546, the KC ([4]; pH 3.5) was 198 ± 19 L/mol and the “CE (complexation efficiency)” value ([4]; pH 5.5) was 0.540. The KC ([4]; pH 5.5) was 327 ± 37 L/mol, the “CE (complexation efficiency)” value ([4]; pH 6.5) was 1.399 and the KC ([4]; pH 6.5) was 1521 ± 73 L/mol. For the same compound, the “CE (complexation efficiency)” value ([4]; pH 7.0) was 2.824, the KC ([4]; pH 7.0) was 5042 ± 176 L/mol and the “CE (complexation efficiency)” value ([4]; pH 8.5) was 0.739. For the same compound, the KC ([4]; pH 8.5) was 973 ± 94 L/mol, the “increase in solubility of carvacrol” value ([5]; HP-β-CDs, US method) was 132.9 times and the KC ([5]; HP-β-CDs, US, pH 7.0) was 6909 ± 161 L/mol. The KC ([5]; HP-β-CDs, ultrasound (US), 24 h) was 8129 ± 194 L/mol, the S0 ([5]; achieved by US) was 0.56 mmol/L and the “increase in solubility of carvacrol” value ([6]; MWI, 24 h) was 151.8 times. For the same compound, the “increase in solubility of carvacrol” value ([6]; MWI, 48 h) was 155.6 times, the KC ([6]; MWI, at 24 h, pH 7.0) was 8129 ± 194 L/mol and the KC ([6]; MWI, at 48 h, pH 7.0) was 6811 ± 107 L/mol. For the same compound, the KC ([6]; microwave irradiation (MWI)) was 6909 ± 161 L/mol, the S0 ([6]; in the case of MWI) was 0.35 mmol/L and the IC50 [7] was 385 µM. For the same compound, the IC50 [8] was 398 µM, the “soluble drug (carvacrol release)” value [9] was 4.37 ± 1.61% and the pKa [10] was 10.38.

In the case of `O=C(O)/C=C/c1ccc(O)cc1` [p-coumaric acid], the “CE (complexation efficiency)” value [11] is listed as 2.30, the “CE (complexation efficiency)” value [12] is listed as 2.57 and the “CE (complexation efficiency)” value [13] is listed as 1.89.

From paper PMC9786748, “Carvacrol and HP-β-Cyclodextrin Complexes: Extensive Characterization and Potential Cytotoxic Effect in Human Colorectal Carcinoma Cells” (Pharmaceutics, 2022)
